Values of other authors, collected in patent US20050239875A1, “Derivatives of dihydronepetalactone and method for preparation” (priority 2003, published 2005).

Test system: insect
Conditions: disclosed by Hallahan in WO 03/079786

In the case of `CC1COC(=O)C2C(C)CCC12` (stereo not shown) [DHN, Dihydronepetalactone], the “insect repellent performance compared with N,N-diethyl-m-toluamide (DEET)” value is given as “compares favorably”.
